Results published in article PMC4835877, “HM71224, a novel Bruton’s tyrosine kinase inhibitor, suppresses B cell and monocyte activation and ameliorates arthritis in a mouse model: a potential drug for rheumatoid arthritis” (Arthritis Research & Therapy, 2016).

What was measured:
[1] = tested on: DBA/1 J mice with collagen-induced arthritis; experiment: Collagen-induced arthritis (CIA) model; type: in vivo, mouse; conditions: dexamethasone 0.2 mg/kg once a day
Method: All animal experimental protocols were approved by the animal care and use committee of the Hanmi Research Center, and performed in accordance with approved guidelines. Male DBA/1 J mice (9 weeks old; n = 7 per group) were immunized with an emulsion of Complete Freund’s Adjuvant and bovine type II collagen (CII) (total volume, 0.07 mL) via intradermal injection at the base of the tail (day 0). Three weeks later, the mice received a booster immunization comprising bovine CII emulsified in Incomplete Freund’s Adjuvant. […] The arthritis score and body weight were measured three times per week for 2 weeks after administration of the drugs (Additional file 1: Figure S1). The arthritis score was determined by grading each paw from 0 to 4 based on erythema, swelling, and flexion of the joint and was expressed as the sum of the scores of all four paws. Serum levels of IL-6 were measured by Luminex analysis in a bead-based immunoassay (EMD Millipore Corporation). Serum levels of anti-CII and total IgG were measured by ELISA (Chondrex, Seattle, WA, USA; Bethyl Laboratories, Montgomery, TX, USA).
Micro-CT of the hind limbs was performed using a Siemens Inveon Micro-CT/PET scanner (Siemens Medical Solutions, Knoxville, TN, USA).
The hind legs of each mouse were fixed with 10 % formalin, decalcified in 5 % formic acid, and embedded in paraffin. Sections were then cut and stained with hematoxylin and eosin (H&E). The bone erosion index was scored from 0 to 4 according to the following criteria: 0 = no erosion, 1 = mild (focal subchondral erosion), 2 = moderate (multiple subchondral erosions), 3 = high (as above and focal erosion of talus), and 4 = maximum (multiple erosions of tarsal and metatarsal bones).
Figure S1. Experiment design of collagen induced arthritis. Untreated DBA/1J mice (n=7) served as healthy controls (Ctrl). DBA/1J mice (n= 56) were immunized Day 0 and day 21. On day 10 after boosting (i.e. day 31), the induction of CIA was evaluated. […] Immunized mice (n=42) were divided into 6 groups (n=7 in each group). […] CIA, collagen induced arthritis.

CD3+ T cells = experiment: T cell signaling, phospho-flow of CD3/CD28-activated PBMCs; type: cell-based, human; conditions: CD3- and CD28-conjugated beads
Method: For phospho-flow, B cells were activated by crosslinking their BCRs with anti-human IgM antibodies (10 μg/mL; BD Biosciences) for 10 minutes at 37 °C. Cells were then fixed with 2 % paraformaldehyde at 37 °C for 12 minutes, permeabilized, and stained with anti-CD3-FITC (SK7; BD Biosciences), anti-CD20-PerCP-Cy5.5 (H1; BD Biosciences), anti-pBtk (Y223)-Alexa647 (N35-86; BD Biosciences), anti-pPLCγ2 (Y759)-Alexa647 (K86-689.37; BD Biosciences), anti-pSTAT1 (Y701)-Alexa647 (4a; BD Biosciences), anti-pSTAT3 (Y705)-Alexa647 (4/P-STAT3; BD Biosciences), anti-pSTAT5 (Y694)-Alexa647 (47; BD Biosciences), and anti-pERK1/2 (T202/204)-Alexa647 (20A; BD Biosciences) antibodies. The cells were then washed and analyzed on an LSR II flow cytometer (BD Biosciences). Data were analyzed using FlowJo software, version 8.8 (Treestar, Ashland, OR, USA).
Figure S5. Effect of HM71224 on human T cell signaling. […] The expression level of p-STAT1, p-STAT3, p-STAT5, and p-ERK1/2 by CD3+ T cells was then measured by phospho-flow cytometry.

Structure (SMILES) | AS, arthritis score ([1]; D0) | Wt, weight ([1]; D0) [gram] | AS, arthritis score ([1]; D1) | AS, arthritis score ([1]; D4) | AS, arthritis score ([1]; D6) | AS, arthritis score ([1]; D8) | AS, arthritis score ([1]; D12) | AS, arthritis score ([1]; D13) | AS, arthritis score ([1]; D15) | T cell receptor signaling (p-STAT1, p-STAT3 and p-STAT5) (CD3+ T cells) | p-ERK1/2 in CD3+ T cells (CD3+ T cells)
C[C@@H]1C[C@H]2[C@@H]3CCC4=CC(=O)C=C[C@]4(C)[C@@]3(F)[C@@H](O)C[C@]2(C)[C@@]1(O)C(=O)CO [Dexa, dexamethasone, reference compound] | 1.1±0.5 | 22.9±0.4 | 0.9±0.5 | 0.4±0.2 | 0.3±0.2 | 0.3±0.2 | 0.3±0.2 | 0.4±0.3 | 0.3±0.2 |  | 
C=CC(=O)N1CCC[C@@H](n2nc(-c3ccc(Oc4ccccc4)cc3)c3c(N)ncnc32)C1 [PCI-32765, Ibrutinib] |  |  |  |  |  |  |  |  |  | not affected | inhibited
C[C@@H]1CCN(C(=O)CC#N)C[C@@H]1N(C)c1ncnc2[nH]ccc12 [Tofacitinib] |  |  |  |  |  |  |  |  |  | significantly suppressed | 
